Measurements published in patent US20050272040A1, “Method for increasing synaptic growth or plasticity” (priority 2002, published 2005).

Tested on: hippocampal cells
Experiment: Whole-cell patch-clamp recordings of synaptic charge
Assay type: cell-based, rat
Conditions: for Effect on synaptic charge: perfusion of synthetic rat VGF peptide, 0.1 μM
Procedure: To examine the relationship between synaptic response and gene expression, an individual cell's electrophysiological response to BDNF was examined in conjunction with single-cell RT-PCR for Arc. […] Whole-cell patch-clamp recordings from 16 cells verified 0.8- to 4.5-fold increase in synaptic charge following 20 minutes BDNF exposure. […] A group of BDNF-treated cells presenting a minimal synaptic response was apparent. This group was categorized as non-responders (FIG. 1B) and the other cells showing a greater response to BDNF were classified as responders. To determine whether cellular basal activity influences the response to BDNF, the average synaptic charge pre-BDNF of the responders (36±13.1 pC, n=7) versus the non-responders (23.2±6.6 pC, n=9) was compared.
To explore a functional role for VGF in neuromodulation, whole-cell patch-clamp recordings on hippocampal cells were performed in the presence of synthetic VGF peptides. The electrophysiological profile of VGF peptides on hippocampal cells was similar to that observed for BDNF (Levine et al. (1996) supra). […] Enhanced synaptic activity was maintained for up to 25 minutes in the continued presence of Thr-Leu-Gln-Pro-62 (SEQ ID NO:14). […] The effects of both Ala-Gln-Glu-Glu-30 (SEQ ID NO:16) and Thr-Leu-Gln-Pro-62 (SEQ ID NO:14) peptides were dose-dependent, saturating at 0.1 μM.
Whole-cell patch clamp recordings were performed after 10-14 days in culture. Currents were recorded with an Axoclamp 200 amplifier, digitized at 2.5 kHz with an INDEC IDA 15125 interface, filtered at 5 kHz and stored. Recording parameters and stimulus protocols were controlled by custom software written with Borland C++ that utilizes device driver libraries supplied by INDEC. Data analysis programs were written with Microsoft Visual Basic. The. external bath solution for voltage clamp recordings was (in mM) 1.67 CaCl2, 1 MgCl2, 5.36 KCl, 137 NaCl, 17 glucose, 10 HEPES and 20 sucrose (neuron recording solution, NRS). The pipette solution contained (in mM) 105 Cs-methanesulfonate, 17.5 CsCl, 10 HEPES, 0.2 EGTA, 8 NaCl, 2 Mg-ATP, 2 Na-ATP, 0.3 Na-GTP, 20 phosphocreatinine, and 50 U/ml creatinine phosphokinase. All recordings were made at room temperature. The typical range of pipette resistance was 3-5 MΩ. Cell capacitance was 10-20 pF and access resistance was 7-20 MΩ. Vacuum perfusion system contained BDNF (50 ng/ml, Preprotech, Princeton, N.J.), NRS as a control or VGF peptides (0.1 μM=740 ng/ml). Three synthetic rat VGF peptides were used: Leu-Glu-Gly-Ser-28 (SEQ ID NO:15) amino acids 285-312 (amidated), Thr-Leu-Gln-Pro-62 (SEQ ID NO:14) amino acids 556-617 and Ala-Gln-Glu-Glu-30 (SEQ ID NO:16) amino acids 588-617. Each data point represents a cell from a separate dish and at least three different platings were used for each condition.
Data were analyzed by integrating the synaptic currents for each sweep (synaptic charge). The charge measurements for all sweeps in a 1 min period were averaged (binned). Baseline is considered the average synaptic charge during the 2 min period (−2 to 0 min) in NRS immediately prior to BDNF or VGF application. Fold increases were then determined by dividing the synaptic charge during BDNF or VGF exposure by the baseline. Recordings were rejected if either the 0-5 min binned time period or 5-10 min binned time period after switching during BDNF or VGF exposure was 2×SEM below baseline, indicating “run down”.

With “Ala-Gln-Glu-Glu-30: synthetic rat VGF peptide, amino acids 588-617, C-terminal region (AQEE)” the “Saturating concentration of dose-dependent effect on synaptic charge” value was 0.1 µM.
“Leu-Glu-Gly-Ser-28: synthetic rat VGF peptide, amino acids 285-312 (amidated), N-terminal region” was tested, and the “Effect on synaptic charge” value was “no change in synaptic charge”.
With “Thr-Leu-Gln-Pro-62: synthetic rat VGF peptide, amino acids 556-617, C-terminal portion of VGF (TLQP)” the “Saturating concentration of dose-dependent effect on synaptic charge” value was 0.1 µM, the “Time to increased synaptic charge” value (after start of peptide perfusion) was at most 5 min and the “Time enhanced synaptic activity was maintained” value (continued presence of peptide) was “up to 25 minutes”. The “Effect on synaptic charge” value was “Increased synaptic charge”.
